B1: TSBT×6146: guide polynucleotide targeting PPIA (nucleic acid)
guide: CGTACCTGACACATAAACCCGTTTTAGAGCTAGAAATAGCAAGTTAAAATAAGGCTAGTCCGTTATCAACTTGAAAAAGTGGCACCGAGTCGGTGCTTTT
modifications: chemistry not given here
notes: guide polynucleotide targeting PPIA
B2: TSBT×6143: guide polynucleotide targeting PPIA (nucleic acid)
guide: GCCCGACCTCAAAGGAGACGGTTTTAGAGCTAGAAATAGCAAGTTAAAATAAGGCTAGTCCGTTATCAACTTGAAAAAGTGGCACCGAGTCGGTGCTTTT
modifications: chemistry not given here
notes: as for B1

Assays:
donor T cells = conditions: 10 nM dose of AP1903; cells expressing iCasp9; cited from earlier work
19CAR-T cells [1] = assay: CAR-T cell cytokine production assay; format: cell-based, human; conditions: corticosteroid treatment; JeKo-1 stimulation; IFNg and TNFa
Protocol: 10. Monensin and Brefeldin A were added to the cell cultures to inhibit protein secretion for the duration of the stimulation. After the 6 hours, the cells were stained with reagents against 19CAR, CD4, CD8, IFNg, and TNFa, and the cells were also stained using a viability stain. Fluorescence activated cell sorting (FACS) was then used to measure intracellular levels of IFNg (y-axis) and TNFa (x-axis) in CD4^+ 19CAR-T cells. In FIG. 10, the numbers in each quadrant of each contour plot represent the percent of total cells counted that fell within the quadrant.
10. Monensin and Brefeldin A were added to the cell cultures to inhibit protein secretion for the duration of the stimulation. After the 6 hours, the cells were stained with reagents against 19CAR, CD4, CD8, IFNg, and TNFa, and the cells were also stained using a viability stain. Fluorescence activated cell sorting (FACS) was then used to measure intracellular levels of IFNg (y-axis) and TNFa (x-axis) in CD8^+ 19CAR-T cells. In FIG. 10, the numbers in each quadrant of each contour plot represent the percent of total cells counted that fell within the quadrant.
The following day, T cells were washed, counted and 1×10^5 cells were seeded in duplicate into a 96-well flat bottom plate alone or with 2×10^5 JeKo-1.GFP^+ tumor cells. […] Cells were incubated for 6 hours total before analysis by flow cytometry.

19CAR-T cells [2] = assay: CAR-T cell proliferation assay; format: cell-based, human; conditions: corticosteroid treatment; JeKo-1 stimulation
From the text: Primary human T cells were activated using an anti-CD3/CD28/CD2 reagent. Two-days after being contacted with the reagent, the T cells were edited using a base editor system containing the guide polynucleotide TSBT×1538 and the base editor ABE8.20m using electroporation, as described above. Following electroporation, both the T cells were transduced with a lentiviral vector encoding an anti-CD19 CAR (19CAR) and allowed to expand in culture for approximately 7 days before being cryopreserved for later analysis. Unedited anti-CD19 CAR-T cells were prepared as a negative control. The 19CAR-T cells were then thawed from cryopreservation and rested overnight before being stimulated using dynabeads coated with recombinant human CD19 protein-coated at a bead-to-cell ratio of 1:1. The T cells were cultured in the presence of 100 nM of the immunosuppressant rapamycin or dimethylsulfoxide (DMSO) as a control for 6 days. The total number of T cells were enumerated using a NucleoCounter NC-200™ automated cell counter.
Primary human T cells were activated using an anti-CD3/CD28/CD2 reagent. Two days after being contacted with the reagent, the T cells were edited using a base editor system containing the guide polynucleotide TSBT×1538 and the base editor ABE8.20m using the electroporation protocol described above. Both edited and unedited T cells were transduced with a lentiviral vector encoding an anti-CD19 CAR (19CAR) and allowed to expand in culture for approximately 7 days before being cryopreserved for later analysis. Unedited 19CAR-T cells were used as a control. For analysis, the 19CAR-T cells were thawed and rested for 72 hours before labeling using a CellTrace™ Far Red (CTFR) dye. After CTFR labeling, the 19CAR-T cells were stimulated using an Immunocult™ Human CD3/CD28/CD2 universal T cell activator in the presence of 100 nM of the immunosuppressant agent rapamycin or in the presence of DMSO (control) and allowed to incubate for an additional 3 days. Following the three-day incubation, the T cells were analyzed using flow cytometry to measure dilution of CTFR dye as an indicator of cell proliferation.
The following day, T cells were washed, counted and 1×10^4 cells were seeded in triplicate into a 96-well flat bottom plate alone or with 1×10^4 JeKo-1.GFP^+ tumor cells. […] On day 7, samples were analyzed by flow cytometry and 19CAR-T cells were enumerated using CountBright Counting Beads (Thermo Fisher Scientific) following the manufacturer's protocol.

endogenous NK cells = assay: IL-15 treatment of HIS mice, elimination of HLA-deficient T cells; format: in vivo, BLT mice; conditions: 2.5 mg every 2-3 days, 6 total injections
From the text: FIGS. 20A to 20E provide plots, a schematic diagram, and a flow cytometry scatter plot showing human immune system (HIS) mice under-reconstituted human NK cells and necessitated IL-15 treatment to eliminate HLA-deficient T cells. FIG. 20A provides a plot showing frequency of human CD56^+ NK cells of CD45^+ cells in PBMCs from human donors (n=10), BLT-NSG mice (Cohort A, n=18; Cohort B, n=15; Cohort C, n=18) and huCD34^+ NCG mice (Cohort D, n=17; Cohort E, n=12; Cohort F, n=24; Cohort G, n=12). FIGS. 20B to 20E relate to an experiment where HIS mice were treated every 2-3 days with recombinant human IL-15 (2.5 mg) or PBS for 6 total injections. Mice were then coinfused 1:1 ratio with allogeneic CD4-based CAR-T cells that were base-edited for TCRKO (HLA+) or TCRKOb2MKOCIITAKO (HLA−). […] Statistical significance was calculated by Wilcoxon matched-pairs signed rank test (FIG. 20E).
For the study described in FIGS. 20A to 20E, BLT mice received intraperitoneal injections every 2-3 days of 2.5 mg recombinant human IL-15 (BioLegend; n=6) or sterile PBS (n=3) for 6 total injections. […] Persistence of 4CAR-T cells was monitored at 1-, 4- and 7-days post-T cell infusion via blood draw from the retro-orbital sinus. […] Persistence of 4CAR-T cells was monitored at 1-day post-T cell infusion and weekly thereafter via blood draw from submandibular vein.

PPIA protein = assay: Flow cytometry of PPIA protein in edited T cells; format: cell-based, human; conditions: T cells edited with ABE8.20m and the guide, five days
From the text: FIG. 7 provides a set of overlaid flow cytometry histograms confirming knock-out of PPIA protein expression in primary human T cells edited using base editor systems containing
ABE8.20m and the guide polynucleotide TSBT×6143 or TSBT×6146 (see Table 1 for nucleotide sequences). Five days following being contacted with the base editor systems, the T cells were stained using LIVE/DEAD™ Fixable Near-Infra Red (NIR) stain (Thermo). The cells were then fixed and permeabilized followed by immunostaining using a primary antibody targeting PPIA (polyclonal Cyclophilin A Antibody from ProteinTech; 10720-1-AP). The cells were then contacted with a secondary antibody (polyclonal Goat anti-Rabbit IgG (H+L) Cross-Adsorbed Secondary Antibody labeled using Alexa Fluor™ 488 and available from Invitrogen; A-11008) and analyzed using flow cytometry. Unedited cells and isotype control antibody stained cells were used as controls representing high and low levels of PPIA protein, respectively. The x-axis of FIG. 7 indicates the level of PPIA protein measured. In FIG. 7, the y-axis represents cell counts normalized to the mode cell count measured for PPIA expression levels in a sample (i.e., the most frequently counted expression level was set to have a total cell count value (y-axis value) equal to 100).

| Molecule | cytokine production of FKBP1A^KO 19CAR-T cells (19CAR-T cells [1]) | antigen-driven proliferation of FKBP1A^KO 19CAR-T cells (19CAR-T cells [2]) | PPIA expression (PPIA protein) | also measured |
| --- | --- | --- | --- | --- |
| CC[C@H](C(=O)N1CCCC[C@H]1C(=O)O[C@H](CCc1ccc(OC)c(OC)c1)c1cccc(OCC(=O)NCCNC(=O)COc2cccc([C@@H](CCc3ccc(OC)c(OC)c3)OC(=O)[C@@H]3CCCCN3C(=O)[C@@H](CC)c3cc(OC)c(OC)c(OC)c3)c2)c1)c1cc(OC)c(OC)c(OC)c1 [AP1903] |  |  |  | apoptosis of donor T cells (donor T cells): approximately 99% |
| C[C@@H]1C[C@H]2[C@@H]3CCC4=CC(=O)C=C[C@]4(C)[C@@]3(F)[C@@H](O)C[C@]2(C)[C@@]1(O)C(=O)CO [dexamethasone, Dexamethasone] | suppressed | suppressed |  |  |
| C[C@]12C=CC(=O)C=C1CC[C@@H]1[C@@H]2C(=O)C[C@@]2(C)[C@H]1CC[C@]2(O)C(=O)CO [prednisone, Prednisone] | suppressed | suppressed |  |  |
| recombinant human IL-15: recombinant human IL-15 (BioLegend) |  |  |  | priming of endogenous NK cells against b2M^KO T cells (endogenous NK cells): prime endogenous NK cells against b2M^KO T cells in vivo |
| B1 |  |  | Knock-out of PPIA expression |  |
| B2 |  |  | Knock-out of PPIA expression |  |

Source: patent US20260183393A1, “IMMUNOSUPPRESSANT-RESISTANT MODIFIED ALLOGENEIC MODIFIED IMMUNE CELLS AND METHODS FOR USE THEREOF” (Beam Therapeutics Inc., priority 2023, published 2026)
